As a reminder, the IC50 is the concentration needed to halve the response being measured.

Data set [1] relates to human liver cancer cells Hep3B cells. The experiment in a line: Cell proliferation assay (CellTiter-Glo). The format is cell-based. The note with it: 96 hrs incubation, CTG detection, read-out: IC50(nM) of the compound on Hep3B cells. From the text: In vitro cell assay was used to measure the effects of the compound of the present invention on the proliferation of human liver cancer cells Hep3B cells. The CELL TITER-GLO (CTG) luminescent was used as detection method in the assay, which can detect the number of living cells by quantitatively determining ATP. Because ATP participates in a variety of enzymatic reactions in organisms, it is an indicator of the metabolism of living cells, and its content directly reflects the number and cell state of cells, during the experiment, add CellTiter-Glo™ reagent to the cell culture medium to measure the luminescence, the luminescence value is directly proportional to the amount of ATP, and ATP is positively related to the number of living cells, so cell viability can be inspected by detecting the ATP content.
Take a bottle of Hep3B cells in logarithmic growth phase, the cells were counted after digestion and resuspension, and then were adjusted the cell density and seeded at 180 μL per well (1500 cells/well) into a 96-well plate, the plate was incubated for 24 hrs in 37° C. 5% CO2 incubator;
The 600 μM test substance dissolved in DMSO was diluted with DMSO in a 1:3 ratio to a 200-fold final concentration solution, then the cell culture medium was diluted 20 fold (10×), and 20 μL of the compound solution was added to the 96 wells containing cells in the plate, the final concentration of the compound from high to low was 3000 nM, 1000 nM, 333.3 nM, 111.1 nM, 37.04 nM, 12.35 nM, 4.115 nM, 1.372 nM, 0.4572 nM, and the well plate was placed in a 37° C. 5% CO2 incubator for 96 hrs;
After 96 hrs of incubation, 60 μL of CellTiter-Glo® Luminescent Cell Viability Assay solution was added to each well, gently shaked for 2 mins, continued incubating for 10 mins at room temperature, and the luminescence value of each well on the multifunctional microplate reader was readed.
Calculated the inhibition rate base on the luminous value,
Inhibition rate %=(blank group value−administration group value)/(blank group value−apoptosis group value)*100
The log value of the concentration was used as the X axis, and the percentage inhibition rate was used as the Y axis. Log (inhibitor) vs. response-Variable slope (four parameters) of GraphPad Prism's was used to fit the dose-response curve, and the IC50 of the compound to inhibit cell proliferation was calculated.
In general terms: ATP-based viability assays read luminescence as a measure of living cells.

Data set [2] deals with tyrosine kinase FGFR4 (Homo sapiens, UniProt P22455). The experiment in a line: Kinase assay (mobility shift assay), FGFR4. The format is biochemical. To be noted: compound and enzyme incubated for 60 mins. Here is the method: (§1) The effect of the compounds of the present invention on the activity of tyrosine kinase FGFR4 was evaluated with in vitro kinase detection experiment. The mobility shift assay was used in the experiment, and a fluorescently labeled polypeptide was used as the substrate, the substrate was transformed into a product under the action of the enzyme in the reaction system, and its charge has also changed accordingly. This method can use the difference between the charge of the substrate and the product to separate them, and then detect them separately.
(§2) DMSO solution of compound (300 μM) was diluted to a 100-fold final concentration of DMSO solution in a 384-well plate, 3-fold dilution, 250 nL of the compound with 100-fold final concentration was transferred to the target plate OptiPlate-384F by a dispenser Echo 550. The final concentration of the compound were 3000 nM, 1000 nM, 333.3 nM, 111.1 nM, 37.04 nM, 12.35 nM, 4.115 nM, 1.372 nM, 0.4572 nM, 0.1524 nM, the compound and the enzyme were incubated for 60 mins,
(§3) Prepared 1× kinase buffer, used the 1× kinase buffer to prepare 2.5 fold final concentration of kinase solution, 10 μL of 2.5 fold final concentration kinase solution was added to the compound well and the positive control well respectively, and 10 μL of 1× kinase buffer was added to the negative control well. After centrifugation, the reaction plate was shaken and mixed and incubated at room temperature for 60 mins, a mixture of 25/15 fold final concentration of adenosine triphosphate (ATP) and kinase substrate 22 was prepared with 1× kinase buffer. 15 μL of 25/15 fold final concentration of ATP and substrate mixed solution was added to start the reaction, 384-well plate was centrifuged, mixed, and then incubated at room temperature for 30 minutes, 30 μL of the stop detection solution was added to stop the kinase reaction, and the conversion rate was readed with Caliper EZ Reader after centrifugation and mixing;
(§4) wherein: Conversion %_sample was the conversion rate of the sample; Conversion %_min was the average value of the negative control well, which represent the conversion rate of the well without enzyme activity, Conversion %_max was the average value of the positive control well, which represent the conversion rate of the well without compound inhibition.
(§5) Take the log value of the concentration as the X axis, the percentage inhibition rate as the Y axis, and use GraphPad Prism's log(inhibitor) vs. response-Variable slope (four parameters) of the analysis software to fit the dose-response curve to obtain the IC50 value of each compound on the enzyme. The formula is as follows: Y=Bottom+(Top−Bottom)/(1+10^((Log IC50−X)*HillSlope)).

Data set [3] deals with FGFR1 (Homo sapiens, UniProt P11362). The experiment in a line: Kinase assay (mobility shift assay), FGFR1. The format is biochemical. The note with it: compound and enzyme incubated for 60 mins. Here is the method: [The source words this procedure for another target and reports this target under the same test.] as §1, §2, §3, §4, §5
Data set [4] relates to human hepatocarcinoma cells Hep3B. The experiment in a line: Xenograft tumor model. To be noted: for inhibitory rate on tumor volume growth of Hep3B (TGI): BID×14; for inhibitory rate of tumor weight growth (TGI): BID×14, tumor weight after the last dose; for body weight (routine determination of toxicity): during the entire experiment, at the treatment doses. The format is in vivo. Here is the method:
BALB/c nu/nu female mice were inoculated subcutaneously in the right anterior scapula of 5×10^6 human hepatocarcinoma cells Hep3B, and the volume ratio of cell suspension to matrigel was 1:1 (0.2/mL/mouse). The mice were grouped according to tumor size until the average tumor volume was 158 mm^3. The treatment group was given a test compound solution prepared with an appropriate solvent, and the solvent control group was given a blank solvent. During the treatment, the tumor volume was measured twice a week, and the tumor weight was measured after the last dose to determine the compound activity. The tumor growth inhibition rate (%, TGI) was calculated by comparing the tumor volume and weight of the treatment group and the solvent control group. Body weight measurement, as a routine determination of toxicity, has the same frequency as the tumor volume measurement.

Where only a bound is given, the exact number is not on record here.

tyrosine kinase FGFR4, sequence (P22455 22-802): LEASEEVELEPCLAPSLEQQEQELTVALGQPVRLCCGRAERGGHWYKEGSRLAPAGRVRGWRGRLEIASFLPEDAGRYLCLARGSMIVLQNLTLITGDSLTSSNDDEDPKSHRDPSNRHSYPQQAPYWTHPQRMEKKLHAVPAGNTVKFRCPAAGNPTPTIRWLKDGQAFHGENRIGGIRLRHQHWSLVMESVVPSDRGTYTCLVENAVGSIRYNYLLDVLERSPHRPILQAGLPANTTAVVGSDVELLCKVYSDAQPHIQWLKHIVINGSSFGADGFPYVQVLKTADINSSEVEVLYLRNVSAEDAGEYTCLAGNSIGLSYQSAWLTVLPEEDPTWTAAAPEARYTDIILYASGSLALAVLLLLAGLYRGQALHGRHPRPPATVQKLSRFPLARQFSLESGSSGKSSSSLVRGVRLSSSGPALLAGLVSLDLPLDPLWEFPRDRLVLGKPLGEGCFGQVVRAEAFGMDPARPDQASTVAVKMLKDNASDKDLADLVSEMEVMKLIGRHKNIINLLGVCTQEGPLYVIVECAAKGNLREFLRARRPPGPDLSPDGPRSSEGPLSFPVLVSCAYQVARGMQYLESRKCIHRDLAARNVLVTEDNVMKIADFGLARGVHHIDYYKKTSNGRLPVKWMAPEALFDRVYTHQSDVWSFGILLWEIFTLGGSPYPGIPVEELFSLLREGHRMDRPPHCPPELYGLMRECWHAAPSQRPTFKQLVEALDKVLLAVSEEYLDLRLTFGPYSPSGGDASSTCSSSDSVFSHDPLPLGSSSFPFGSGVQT
FGFR1, sequence (P11362 22-822): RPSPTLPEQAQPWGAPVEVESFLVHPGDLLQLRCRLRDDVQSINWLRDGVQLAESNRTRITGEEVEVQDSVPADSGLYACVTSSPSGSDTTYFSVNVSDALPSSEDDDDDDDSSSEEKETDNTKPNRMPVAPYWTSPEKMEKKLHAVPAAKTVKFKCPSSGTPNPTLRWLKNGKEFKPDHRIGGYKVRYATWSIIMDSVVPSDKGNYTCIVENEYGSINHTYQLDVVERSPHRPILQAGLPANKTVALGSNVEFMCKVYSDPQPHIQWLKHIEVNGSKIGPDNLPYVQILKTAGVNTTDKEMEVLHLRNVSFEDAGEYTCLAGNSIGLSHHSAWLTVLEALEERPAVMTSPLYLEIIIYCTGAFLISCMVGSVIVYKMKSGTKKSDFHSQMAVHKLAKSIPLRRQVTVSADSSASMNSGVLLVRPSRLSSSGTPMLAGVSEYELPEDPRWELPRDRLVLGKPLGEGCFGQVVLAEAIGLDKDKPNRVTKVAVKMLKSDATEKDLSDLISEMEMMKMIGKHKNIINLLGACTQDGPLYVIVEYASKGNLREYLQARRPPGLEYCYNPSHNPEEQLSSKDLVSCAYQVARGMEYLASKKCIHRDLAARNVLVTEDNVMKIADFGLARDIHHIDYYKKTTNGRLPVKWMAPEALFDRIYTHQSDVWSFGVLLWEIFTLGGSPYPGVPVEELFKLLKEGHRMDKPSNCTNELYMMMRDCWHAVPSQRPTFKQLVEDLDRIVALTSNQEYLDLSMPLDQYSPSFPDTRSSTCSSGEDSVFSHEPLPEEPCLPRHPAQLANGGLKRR

As to `C=CC(=O)NC1CCOCC1Nc1ncc2c(=O)n(-c3c(Cl)c(OC)cc(OC)c3Cl)c3ncc(Cl)cc3c2n1` (stereo not shown) [Compound 34, N-(3-((9-chloro-6-(2,6-dichloro-3,5-dimethoxyphenyl)-5-oxo-5,6-dihydropyrimido[5,4-c][1,8]naphthyridin-2-yl)amino)tetrahydro-2H-pyran-4-yl)acrylamide], in data set [1], the IC50 stood at 1030 nM.

For the compound `C=CC(=O)N[C@H]1CCOC[C@H]1Nc1ncc2c(=O)n(-c3c(Cl)c(OC)cc(OC)c3Cl)c3ncccc3c2n1` [Compound 3, N-((3S,4S)-3-((6-(2,6-dichloro-3,5-dimethoxyphenyl)-5-oxo-5,6-dihydropyrimido[5,4-c][1,8]naphthyridin-2-yl)amino)tetrahydro-2H-pyran-4-yl)acrylamide], the IC50 in data set [1] is above 3000 nM.

`C=CC(=O)Nc1cc(N2CCC(N3CCOCC3)CC2)ccc1Nc1ncc2c(n1)-c1cccnc1N(c1c(Cl)c(OC)cc(OC)c1Cl)C2` [Compound 1, N-(2-((6-(2,6-dichloro-3,5-dimethoxyphenyl)-5,6-dihydropyrimido[5,4-c][1,8]naphthyridin-2-yl)amino)-5-(4-morpholinopiperidin-1-yl)phenyl)acrylamide]: the values for the IC50 in data set [2] and in data set [1] were 9.4 nM and 6.9 nM, respectively.

`C=CC(=O)N[C@H]1CCOC[C@H]1Nc1ncc2c(n1)-c1cc(C(F)(F)F)cnc1N(c1c(Cl)c(OC)cc(OC)c1Cl)C2` [Compound 16, N-((3S,4S)-3-((6-(2,6-dichloro-3,5-dimethoxyphenyl)-9-(trifluoromethyl)-5,6-dihydropyrimido[5,4-c][1,8]naphthyridin-2-yl)amino)tetrahydro-2H-pyran-4-yl)acrylamide]: the results for the concentration for half-maximal inhibition (IC50) in data set [3], in data set [2] and in data set [1] were 166 nM, 3.6 nM and 14.5 nM, respectively. Besides, in data set [4] (50 mg/kg), the “inhibitory rate on tumor volume growth of Hep3B (TGI)” value was determined as 78.37%. Moreover, in data set [4] (50 mg/kg), the “inhibitory rate of tumor weight growth (TGI)” value was found to be 83.85%. Also, the “body weight (routine determination of toxicity)” value in data set [4] was “did not show obvious weight losses”.

Take `C=CC(=O)N[C@H]1CCOC[C@H]1Nc1ncc2cc(-c3c(Cl)c(OC)cc(OC)c3Cl)c3nncn3c2n1` [Compound 33, N-((3S,4S)-3-((6-(2,6-dichloro-3,5-dimethoxyphenyl)-[1,2,4]triazolo[4′,3′:1,6]pyrido[2,3-d]pyrimidin-2-yl)amino)tetrahydro-2H-pyran-4-yl)acrylamide]: the IC50 in data set [1] was determined as 524 nM.

For `C=CC(=O)N[C@H]1CCOC[C@H]1Nc1ncc2c(n1)-c1cc(C)cnc1N(c1c(Cl)c(OC)cc(OC)c1Cl)C2` [Compound 13, N-((3S,4S)-3-((6-(2,6-dichloro-3,5-dimethoxyphenyl)-9-methyl-5,6-dihydropyrimido[5,4-c][1,8]naphthyridin-2-yl)amino)tetrahydro-2H-pyran-4-yl)acrylamide], the values for the IC50 in data set [3], in data set [2] and in data set [1] were 367 nM, 1 nM and 5.1 nM, respectively. Besides, the figures for the “inhibitory rate on tumor volume growth of Hep3B (TGI)” value in data set [4] (50 mg/kg), in data set [4] (100 mg/kg) and in data set [4] (200 mg/kg) were 73.02%, 86.26% and 90.26%, respectively. Also, the results for the “inhibitory rate of tumor weight growth (TGI)” value in data set [4] (50 mg/kg), in data set [4] (100 mg/kg) and in data set [4] (200 mg/kg) were 84.76%, 92.27% and 98.15%, respectively. For the same compound, the “body weight (routine determination of toxicity)” value in data set [4] is reported as “did not show obvious weight losses”.

For `C=CC(=O)N[C@H]1CCOC[C@H]1Nc1ncc2c(n1)-c1ccc(C)nc1N(c1c(Cl)c(OC)cc(OC)c1Cl)C2` [Compound 15, N-((3S,4S)-3-((6-(2,6-dichloro-3,5-dimethoxyphenyl)-8-methyl-5,6-dihydropyrimido[5,4-c][1,8]naphthyridin-2-yl)amino)tetrahydro-2H-pyran-4-yl)acrylamide], the values for the IC50 in data set [3] and in data set [2] were 1000 nM and 5.2 nM, respectively.

Turning to `C=CC(=O)N[C@H]1CCOC[C@H]1Nc1ncc2c(n1)-c1cc(F)cnc1N(c1c(Cl)c(OC)cc(OC)c1Cl)C2` [Compound 11, N-((3S,4S)-3-((6-(2,6-dichloro-3,5-dimethoxyphenyl)-9-fluoro-5,6-dihydropyrimido[5,4-c][1,8]naphthyridin-2-yl)amino)tetrahydro-2H-pyran-4-yl)acrylamide], the concentration for half-maximal inhibition (IC50) is 1530 nM in data set [3], 1.8 nM in data set [2] and 10.6 nM in data set [1].

Regarding `C=CC(=O)N[C@H]1CCOC[C@H]1Nc1ncc2c(n1)-c1cc(C)cnc1N(c1cc(OC)cc(OC)c1Cl)C2` [Compound 14, N-((3S,4S)-3-((6-(2-chloro-3,5-dimethoxyphenyl)-9-methyl-5,6-dihydropyrimido[5,4-c][1,8]naphthyridin-2-yl)amino)tetrahydro-2H-pyran-4-yl)acrylamide], the IC50 in data set [3] was 1440 nM; in data set [2] it was 2.6 nM; in data set [1], 18.7 nM.

On to `C=CC(=O)N[C@H]1CCOC[C@H]1Nc1ncc2c(n1)-c1cc(Cl)cnc1N(c1c(Cl)c(OC)cc(OC)c1Cl)C2` [Compound 28, N-((3S,4S)-3-((9-chloro-6-(2,6-dichloro-3,5-dimethoxyphenyl)-5,6-dihydropyrimido[5,4-c][1,8]naphthyridin-2-yl)amino)tetrahydro-2H-pyran-4-yl)acrylamide], for which the IC50 in data set [3] was determined as 741 nM; in data set [2] it was 1.8 nM; in data set [1] it was 9.9 nM.

For the compound `C=CC(=O)N[C@H]1CCOC[C@H]1Nc1ncc2c(n1)-c1cccnc1N(c1c(Cl)c(OC)cc(OC)c1Cl)C2` [Compound 2, N-((3S,4S)-3-((6-(2,6-dichloro-3,5-dimethoxyphenyl)-5,6-dihydropyrimido[5,4-c][1,8]naphthyridin-2-yl)amino)tetrahydro-2H-pyran-4-yl)acrylamide], the IC50 was 912 nM in data set [3] and 10 nM in data set [2].

`C=CC(=O)N[C@H]1CCOC[C@H]1Nc1ncc2cc(-c3c(Cl)c(OC)cc(OC)c3Cl)ccc2n1` [BLU554, reference compound]: the IC50 in data set [3] is 1480 nM; in data set [2] it was 13 nM; in data set [1], 62.7 nM.
